Reference: US10485237B2, “Use of a chemical agent for thinning of stone fruit” (FINE AGROCHEMICALS LIMITED, priority 2014, dated 2019)
Entries after “also recorded” stand apart in the source; their conditions may differ.

Assays:
UFO-4 nectarines [1] = experiment: Dose rate trial in Spain, fruit numbers; assay type: in vivo, nectarine
Protocol: (§1) Two trials were carried out in Spain: a timing trial and a dose rate trial. The dose rate trial was done at UFO-4 nectarines. The use of GA7 (>95% pure with respect to the presence of GA4) was applied in amounts between 0.25 and 2 L/hL at 2 months of full bloom on UFO-4 peach.

peach [2] = experiment: Ex 6: 2011 peach return bloom (blossom counts proximal/distal); assay type: in vivo
Text: Shoots were divided in half and blossoms were counted according to proximal, the half closest to the tree trunk, and distal, the half closest to the shoot tip.

UFO-4 nectarines [3] = experiment: Dose rate trial in Spain, fruit numbers; assay type: in vivo, nectarine; conditions: 10 g/hL (Falgro tablets), comparative experiment B
apricot variety = conditions: cited from earlier work
peach [4] = experiment: Initial evaluation trial in Piemonte, GA7 on peach fruitlets; assay type: in vivo; conditions: 750 ml/hl on 10 mm fruitlets of peach
Protocol: An initial test was carried out as an evaluation trial in Piemonte with GA7 applied at 750 ml/hl on 10 mm fruitlets of peach.

peach and nectarine [5] = experiment: 2010-11 thinning trials in Spain (Catalonia, Masso); assay type: in vivo
Protocol: (§2) Trials were carried out in Italy and Spain with GA7. The trees were treated with GA7 about 3 months after full bloom in order to reduce flowering the year thereafter.
In Spain, trials were carried out on peach and nectarine with GA7 (>95% pure relative to GA4). The first assessments were done at harvest in 2010. […] The main assessments took place in spring 2011 (i.e. the next year): The reduction of the number of buds per cm was in the order of 35% in the trials carried out in the Catalonia region. In the trials in Masso also, clear reductions of 41-78% were found depending on the variety and the dose. In the meantime, fruit size was increased. Time necessary for hand thinning was recorded in the trials done in Catalonia. The treatment with GA7 allowed a reduction of about 30% of the hand thinning time.

peach and nectarine [6] = experiment: 2010-11 thinning trial in Italy; assay type: in vivo; conditions: 1 L/100 L ca. 3 months after full bloom, GA7 95% pure relative to GA4
Protocol: as §2

nectarine = experiment: 2011-12 trial in nectarine, return bloom (number of flowers on distal and basal part of branches); assay type: in vivo
Protocol: as §2
(§3) In 2011, new trials were started: 4 trials in peach and nectarines.

peach and nectarines = experiment: Other three 2011-12 trials, number of flowers per branch; assay type: in vivo; conditions: depending on the trial and the rate
Protocol: as §2, §3

Merryl O Henry peach = experiment: Timing trial in Spain, fruit numbers; assay type: in vivo
Protocol: as §1
Further trial was executed on Merryl O Henry peach. The application of GA7 was varied over time, and in one programme GA7 was applied in two doses, 2 weeks apart.

peach [7] = experiment: Ex 7: 2012 peach return bloom; assay type: in vivo; conditions: applied at 50 ppm
Text: Once again, shoots were divided in half and blossoms were counted according to proximal and distal halves.

peach [8] = experiment: Ex 8: 2011 peach trial (flowers per branch, fruit size and quality); assay type: in vivo
Text: This study consisted of 3 treatments applied on April 25, May 10, and May 26, 2011 (which is 45, 60 and 75 days after full bloom): • 1. Untreated check • 2. FAL 900 at a rate of 25 ppm ai (C) which is 2.5 g per 100 L, which is 0.25 L formulation per 100 L. • 3. FAL 900 at a rate of 50 ppm ai (C) • 4. FAL 900 at a rate of 10 ppm ai (3 treatments with 2 weeks interval) 2011-12 Observations: Evaluations consisted of assessing for firmness, soluble solids, and titratable acidity, and weight of 20 fruit per plot on end of July early August. Shoot measurements were recorded on end of February in […] from ten shoots per plot. The number of flowers per branch were counted from two halves (proximal and distal) of ten branches per plot on end of February 2012.

stone fruit [9] = experiment: Summary of the thinning tests with GA7; assay type: in vivo; conditions: compared with fully hand-thinned fruit
stone fruit [10] = experiment: Reliability of fruit thinning by spraying on fruit trees; assay type: in vivo; conditions: sprayed on fruit trees
Text: GA7 may be used in admixture with GA4, but the relative amounts of GA7 to GA4 are 70% GA7 or more and 30 GA4 or less. Preferably, the GA7 contains less than 10 wt % of GA4 relative to the GA7, more preferably less than 5 wt %. […] In some years, some thinning is observed, but this effect is not consistently achieved.

[11] = 10 g/hL (Falgro tablets), comparative experiment B
[12] = 0.25 L/hL at 2 months of full bloom
[13] = 0.5 L/hL at 2 months of full bloom
[14] = 1.0 L/hL at 2 months of full bloom
[15] = 2.0 L/hL at 2 months of full bloom
[16] = 0.5 L/hL, sprays 1.5 and 2 month after full bloom (two doses)
[17] = 1 L/hL, spray 1.5 month after full bloom
[18] = 1 L/hL, spray 2 month after full bloom
[19] = 1 L/hL, spray 2.5 month after full bloom

SMILES: C=C1C[C@]23C[C@@]1(O)CC[C@H]2[C@@]12C=C[C@H](O)[C@@](C)(C(=O)O1)[C@H]2[C@@H]3C(=O)O [GA3, gibberellic acid]
- Number of fruit/m of short fruiting shoots (<20 cm) (UFO-4 nectarines [1]; [11]): 29
- Total number of fruit per tree (UFO-4 nectarines [1]; [11]): 675
- blossom counts in comparison to the UTC (peach [2]; both rates, throughout the trial): consistently lower blossom counts
- rate response of blossom counts (peach [2]; two evaluation dates): a rate response was observed for the first evaluation date, but not the second
- Number of fruit/m of long fruiting shoots (>20 cm) (UFO-4 nectarines [3]): 18
- Number of fruit/m of total fruiting shoots (UFO-4 nectarines [3]): 19

SMILES: C=C1C[C@]23C[C@H]1CC[C@H]2[C@@]12CC[C@H](O)[C@@](C)(C(=O)O1)[C@H]2[C@@H]3C(=O)O [GA4, reference compound]
- effectiveness compared among GA3, GA4 and GA7 (apricot variety; applied in May or June, source and purity unclear): more effective than either GA3 or GA7

SMILES: C=C1C[C@]23C[C@H]1CC[C@H]2[C@@]12C=C[C@H](O)[C@@](C)(C(=O)O1)[C@H]2[C@@H]3C(=O)O [GA7, gibberellin 7]
- control of flowering in the following year (peach [4]): high control of flowering
- budding (peach [4]; especially on young lateral branches): better budding
- fruit size (peach and nectarine [5]; Masso trials, 2011): increased
- impact of the treatments on yield and fruit quality (peach and nectarine [5]; assessments at harvest in 2010, GA7 >95% pure relative to GA4): did not show any impact
- reductions (trials in Masso) (peach and nectarine [5]; spring 2011, Masso, depending on the variety and the dose): 41-78%
- reduction of the number of buds per cm (peach and nectarine [5]; spring 2011, trials in the Catalonia region): ~35%
- reduction of the hand thinning time (peach and nectarine [5]; trials done in Catalonia): about 30%
- reduction in the number of fruit/meter of branch (peach and nectarine [6]; variety Laura): 1.5%
- reduction in the number of fruit/meter of branch (peach and nectarine [6]; variety Sinphony): 32.9%
- No of flowers (nectarine; basal part, 0.5 L/hL): 8.5
- No of flowers, change vs untreated (nectarine; basal part, 0.5 L/hL): −37%
- No of flowers (nectarine; basal part, 1 L/hL): 5.4
- No of flowers, change vs untreated (nectarine; basal part, 1 L/hL): −60%
- return bloom (nectarine; distal and proximal part of the branches, rate effect between 0.5 and 1 L/100 L): return bloom is reduced
- No of flowers (nectarine; distal part, 0.5 L/hL): 4.7
- No of flowers, change vs untreated (nectarine; distal part, 0.5 L/hL): −58%
- No of flowers (nectarine; distal part, 1 L/hL): 3.7
- No of flowers, change vs untreated (nectarine; distal part, 1 L/hL): −67%
- reduction in the number of flowers per branch in comparison to the untreated (peach and nectarines): −17 to −50%
- Number of fruit/m of long fruiting shoots (>20 cm) (UFO-4 nectarines [1]; [12]): 20
- Number of fruit/m of short fruiting shoots (<20 cm) (UFO-4 nectarines [1]; [12]): 27
- Number of fruit/m of total fruiting shoots (UFO-4 nectarines [1]; [12]): 21
- Total number of fruit per tree (UFO-4 nectarines [1]; [12]): 704
- Number of fruit/m of long fruiting shoots (>20 cm) (UFO-4 nectarines [1]; [13]): 23
- Number of fruit/m of short fruiting shoots (<20 cm) (UFO-4 nectarines [1]; [13]): 28
- Number of fruit/m of total fruiting shoots (UFO-4 nectarines [1]; [13]): 24
- Total number of fruit per tree (UFO-4 nectarines [1]; [13]): 729
- Number of fruit/m of long fruiting shoots (>20 cm) (UFO-4 nectarines [1]; [14]): 17
- Number of fruit/m of short fruiting shoots (<20 cm) (UFO-4 nectarines [1]; [14]): 12
- Number of fruit/m of total fruiting shoots (UFO-4 nectarines [1]; [14]): 16
- Total number of fruit per tree (UFO-4 nectarines [1]; [14]): 491
- Number of fruit/m of long fruiting shoots (>20 cm) (UFO-4 nectarines [1]; [15]): 13
- Number of fruit/m of short fruiting shoots (<20 cm) (UFO-4 nectarines [1]; [15]): 7
- Number of fruit/m of total fruiting shoots (UFO-4 nectarines [1]; [15]): 12
- Total number of fruit per tree (UFO-4 nectarines [1]; [15]): 375
- thinning effectiveness of GA7 versus GA3 (UFO-4 nectarines [1]; at comparable amounts of GA7 and GA3 (Falgro tablets)): more effective
- Number of fruit/m of long fruiting shoots (>20 cm) (Merryl O Henry peach; [16]): 4.7
- Number of fruit/m of short fruiting shoots (<20 cm) (Merryl O Henry peach; [16]): 5.8
- Number of fruit/m of total fruiting shoots (Merryl O Henry peach; [16]): 5.6
- Total number of fruit per tree (Merryl O Henry peach; [16]): 115
- Number of fruit/m of long fruiting shoots (>20 cm) (Merryl O Henry peach; [17]): 8.6
- Number of fruit/m of short fruiting shoots (<20 cm) (Merryl O Henry peach; [17]): 5.9
- Number of fruit/m of total fruiting shoots (Merryl O Henry peach; [17]): 6.5
- Total number of fruit per tree (Merryl O Henry peach; [17]): 149
- Number of fruit/m of long fruiting shoots (>20 cm) (Merryl O Henry peach; [18]): 5.1
- Number of fruit/m of short fruiting shoots (<20 cm) (Merryl O Henry peach; [18]): 3.6
- Number of fruit/m of total fruiting shoots (Merryl O Henry peach; [18]): 3.8
- Total number of fruit per tree (Merryl O Henry peach; [18]): 77
- Number of fruit/m of long fruiting shoots (>20 cm) (Merryl O Henry peach; [19]): 3.7
- Number of fruit/m of short fruiting shoots (<20 cm) (Merryl O Henry peach; [19]): 2.8
- Number of fruit/m of total fruiting shoots (Merryl O Henry peach; [19]): 3.0
- Total number of fruit per tree (Merryl O Henry peach; [19]): 69
- effectiveness for thinning stone fruit (Merryl O Henry peach; applied at varying times): effective for thinning stone fruit
- 2012 return bloom, bloom counts totaled across the entire fruiting branch (proximal+distal) (peach [7]): significant reduction
- number of flowers on the lower or proximal half of the branch (A) (peach [8]; 50 ppm ai (C)): significantly lowest
- size of peaches collected (peach [8]; 50 ppm ai, tree also producing the largest peaches in 2011): largest peaches
- quality of the peaches (peach [8]; firmness, soluble solids, titratable acidity, weight): not influenced
- quality of the resultant fruit (stone fruit [9]): same quality as fully hand-thinned fruit
- reliability of fruit thinning results (stone fruit [10]): reliable thinning results
- effect on flowering vs. untreated (apricot variety; 6 experiments): only in 1 out of 6 experiments a non significant reducing effect on flowering; also recorded: in 4 experiments out of 6 shows the opposite effect of increased flowering
